Nine compounds from patent US5545618A, “GLP-1 analogs useful for diabetes treatment” (priority 1993, dated 1996) can be followed below.

Where two headings read alike, the source gives them in different places.

Series [1] in a line: degradation in plasma by RP-HPLC. Note: key: +: degradation was not observed; -: was complete after this time. The format is in vitro ADME. Conditions: incubation in plasma for 60 minutes.
Method: In this assay, the analog is added to plasma for various times and recovered similarly to the method described above for radiolabel sequencing analysis. Specifically, the analog at a concentration of 100 nM in RIA buffer is spiked into 1 mL plasma to a final concentration of 1 nM and after incubation in 37° C. circulating water bath for various preset times, the reaction is stopped by bringing the plasma to 0.1% (w/v) in bacitracin.
The peptides are then purified by Sep-Pak extraction as described above. The eluates are concentrated to about 1 mL on a Speed-vac, diluted with 1 mL distilled water, frozen at 80° C. and lyophilized overnight. The powder is resuspended in 0.5 mL Buffer C (0.1% TFA in water) per mL starting plasma and 0.25 mL are injected on a Hewlett-Packard 109OL liquid chromatograph using an Alltech C18 column (0.45×25 cm; 10 μm particle size) with a Brownlee 2 cm C18 guard column. The extraction is monitored at OD214 throughout the run and the solvent flow rate was 1 mL/minute. A gradient between Buffer C and Buffer D (0.1% TFA in acetonitrile) is set up over a 40 minute run time. The gradient starts at 35% D is held for the first 2 minutes after injection and then increased to 42% D over 24 minutes. The gradient is then increased to 60% D over the next two minutes, held at this level for 2 minutes and returned to 35% D over the next 2 minutes. The % D remains at 35% for the remaining 8 minutes of the run. Fractions are collected at 0.5 minute intervals for the first 30 minutes of each run and dried in a Speed-vac.
For series [2], the system named is RIN 1046-38 cells. The protocol:
An additional test for potency of the compounds of the invention measures their ability to stimulate cAMP production in RIN 1046-38 cells. This assay can be conducted as follows:
On day 1, 5×10^5 RIN 1046-38 cells (Drucker, D. J., et al., Proc Natl Acad Sci USA (1987) 84:3434-3438) are seeded into individual wells of 6-well dishes with 2.5 mL M199 culture medium. On day 4, cells are re-fed with fresh medium and on day 5 the assay is performed. […] Assays are only performed on cell passage ≤24.
At time -60 min, monolayers are washed twice with 2.5 mL PBS, and medium is changed to 1.0 mL of DMEM medium plus 4.5 g/l glucose and 0.1% BSA (assay medium). At 0 time, medium is aspirated and fresh assay medium, 1.0 mL, containing test compound is added. Test compound is added in 50 ul volume of PBS plus 0.1% BSA; controls are added in vehicle alone. Incubation is continued for 0 to 60 min.
At termination, conditioned medium and monolayer are harvested to measure both extra- and intracellular cAMP content. For extracellular measurement, medium is removed and centrifuged to remove any cellular debris. For intracellular determination, after medium removal, 1.0 mL of ice cold 95% ethanol is added to monolayer. Cells are collected by scraping, lysed by two cycles of quick freeze/thawing using liquid N2, and cell debris then removed by centrifugation. Aliquots (1/40th well content) of conditioned medium and ethanol cell extract are measured in duplicate for cAMP levels using an RIA kit by the acetylated protocol.
Insulin secretion can also be measured by the method described by Holst, J. J., et al. FEBS Letters (1987) 211:169-174 (supra). Also useful as an assay for insulinotropic effect is the measurement of stimulation of adenylate cyclase in the RIN 1046-38 cell line. Drucker, D. J. et al., Proc Natl Acad Sci USA (1987) 84:3434-3438 (supra).

Consider `CC[C@H](C)[C@H](NC(=O)[C@H](Cc1ccccc1)NC(=O)[C@H](CCC(=O)O)NC(=O)[C@H](CCCCN)NC(=O)[C@H](C)NC(=O)[C@H](C)NC(=O)[C@H](CCC(N)=O)NC(=O)CNC(=O)[C@H](CCC(=O)O)NC(=O)[C@H](CC(C)C)NC(=O)[C@H](Cc1ccc(O)cc1)NC(=O)[C@H](CO)NC(=O)[C@H](CO)NC(=O)[C@@H](NC(=O)[C@H](CC(=O)O)NC(=O)[C@H](CO)NC(=O)[C@@H](NC(=O)[C@H](Cc1ccccc1)NC(=O)[C@@H](NC(=O)CNC(=O)[C@H](CCC(=O)O)NC(=O)[C@H](C)NC(=O)[C@@H](N)CCCCN)[C@@H](C)O)[C@@H](C)O)C(C)C)C(=O)N[C@@H](C)C(=O)N[C@@H](Cc1c[nH]c2ccccc12)C(=O)N[C@@H](CC(C)C)C(=O)N[C@H](C(=O)N[C@@H](CCCCN)C(=O)NCC(=O)N[C@@H](CCCNC(=N)N)C(=O)NCC(=O)O)C(C)C` [(K)^7 -GLP-1(7-37)], for which the “Resistance to Degradation” value in series [1] is reported as “-”. As for `CC[C@H](C)[C@H](NC(=O)[C@H](Cc1ccccc1)NC(=O)[C@H](CCC(=O)O)NC(=O)[C@H](CCCCN)NC(=O)[C@H](C)NC(=O)[C@H](C)NC(=O)[C@H](CCC(N)=O)NC(=O)CNC(=O)[C@H](CCC(=O)O)NC(=O)[C@H](CC(C)C)NC(=O)[C@H](Cc1ccc(O)cc1)NC(=O)[C@H](CO)NC(=O)[C@H](CO)NC(=O)[C@@H](NC(=O)[C@H](CC(=O)O)NC(=O)[C@H](CO)NC(=O)[C@@H](NC(=O)[C@H](Cc1ccccc1)NC(=O)[C@@H](NC(=O)CNC(=O)[C@H](CCC(=O)O)NC(=O)[C@H](C)NC(=O)[C@H](Cc1c[nH]cn1)NC(C)=O)[C@@H](C)O)[C@@H](C)O)C(C)C)C(=O)N[C@@H](C)C(=O)N[C@@H](Cc1c[nH]c2ccccc12)C(=O)N[C@@H](CC(C)C)C(=O)N[C@H](C(=O)N[C@@H](CCCCN)C(=O)NCC(=O)N[C@@H](CCCNC(=N)N)C(=O)NCC(=O)O)C(C)C` [(N-acetyl-H)^7 -GLP-1(7-37)], the “Resistance to Degradation” value in series [1] was “+”.

With `CC[C@H](C)[C@H](NC(=O)[C@H](Cc1ccccc1)NC(=O)[C@H](CCC(=O)O)NC(=O)[C@H](CCCCN)NC(=O)[C@H](C)NC(=O)[C@H](C)NC(=O)[C@H](CCC(N)=O)NC(=O)CNC(=O)[C@H](CCC(=O)O)NC(=O)[C@H](CC(C)C)NC(=O)[C@H](Cc1ccc(O)cc1)NC(=O)[C@H](CO)NC(=O)[C@H](CO)NC(=O)[C@@H](NC(=O)[C@H](CC(=O)O)NC(=O)[C@H](CO)NC(=O)[C@@H](NC(=O)[C@H](Cc1ccccc1)NC(=O)[C@@H](NC(=O)CNC(=O)[C@H](CCC(=O)O)NC(=O)[C@H](C)NC(=O)[C@H](CCCCN)NC(C)=O)[C@@H](C)O)[C@@H](C)O)C(C)C)C(=O)N[C@@H](C)C(=O)N[C@@H](Cc1c[nH]c2ccccc12)C(=O)N[C@@H](CC(C)C)C(=O)N[C@H](C(=O)N[C@@H](CCCCN)C(=O)NCC(=O)N[C@@H](CCCNC(=N)N)C(=O)NCC(=O)O)C(C)C` [(N-acetyl-K)^7 GLP-1 (7-37)], in series [1], the “Resistance to Degradation” value is “+”. The same measure, in the same setting: the result for `CC[C@H](C)[C@H](NC(=O)[C@H](Cc1ccccc1)NC(=O)[C@H](CCC(=O)O)NC(=O)[C@H](CCCCN)NC(=O)[C@H](C)NC(=O)[C@H](C)NC(=O)[C@H](CCC(N)=O)NC(=O)CNC(=O)[C@H](CCC(=O)O)NC(=O)[C@H](CC(C)C)NC(=O)[C@H](Cc1ccc(O)cc1)NC(=O)[C@H](CO)NC(=O)[C@H](CO)NC(=O)[C@@H](NC(=O)[C@H](CC(=O)O)NC(=O)[C@H](CO)NC(=O)[C@@H](NC(=O)[C@H](Cc1ccccc1)NC(=O)[C@@H](NC(=O)CNC(=O)[C@H](CCC(=O)O)NC(=O)[C@H](C)NC(=O)[C@H](Cc1c[nH]cn1)NC(C)C)[C@@H](C)O)[C@@H](C)O)C(C)C)C(=O)N[C@@H](C)C(=O)N[C@@H](Cc1c[nH]c2ccccc12)C(=O)N[C@@H](CC(C)C)C(=O)N[C@H](C(=O)N[C@@H](CCCCN)C(=O)NCC(=O)N[C@@H](CCCNC(=N)N)C(=O)NCC(=O)O)C(C)C` [(N-isopropyl-H)^7 GLP-1(7-37), (N-isopropyl-H)^7 -GLP-1(7-37)] reads “+”. Consider `CC[C@H](C)[C@H](NC(=O)[C@H](Cc1ccccc1)NC(=O)[C@H](CCC(=O)O)NC(=O)[C@H](CCCCN)NC(=O)[C@H](C)NC(=O)[C@H](C)NC(=O)[C@H](CCC(N)=O)NC(=O)CNC(=O)[C@H](CCC(=O)O)NC(=O)[C@H](CC(C)C)NC(=O)[C@H](Cc1ccc(O)cc1)NC(=O)[C@H](CO)NC(=O)[C@H](CO)NC(=O)[C@@H](NC(=O)[C@H](CC(=O)O)NC(=O)[C@H](CO)NC(=O)[C@@H](NC(=O)[C@H](Cc1ccccc1)NC(=O)[C@@H](NC(=O)CNC(=O)[C@H](CCC(=O)O)NC(=O)[C@H](C)NC(=O)[C@H](Cc1c[nH]cn1)NC(=O)[C@H](CCCNC(=N)N)NC(=O)[C@H](CCC(=O)O)NC(=O)[C@H](Cc1ccccc1)NC(=O)[C@H](CCC(=O)O)NC(=O)[C@H](CC(=O)O)NC(=O)[C@@H](N)Cc1c[nH]cn1)[C@@H](C)O)[C@@H](C)O)C(C)C)C(=O)N[C@@H](C)C(=O)N[C@@H](Cc1c[nH]c2ccccc12)C(=O)N[C@@H](CC(C)C)C(=O)N[C@H](C(=O)N[C@@H](CCCCN)C(=O)NCC(=O)N[C@@H](CCCNC(=N)N)C(=O)NCC(=O)O)C(C)C` [GLP-1(1-37)], for which, in series [2], the “ED50 nM Duplicate Assays (first value)” value is on record as > 1000 nM and the “ED50 nM Duplicate Assays (second value)” value is reported as 2900 nM.

Consider `CC[C@H](C)[C@H](NC(=O)[C@H](Cc1ccccc1)NC(=O)[C@H](CCC(=O)O)NC(=O)[C@H](CCCCN)NC(=O)[C@H](C)NC(=O)[C@H](C)NC(=O)[C@H](CCC(N)=O)NC(=O)CNC(=O)[C@H](CCC(=O)O)NC(=O)[C@H](CC(C)C)NC(=O)[C@H](Cc1ccc(O)cc1)NC(=O)[C@H](CO)NC(=O)[C@H](CO)NC(=O)[C@@H](NC(=O)[C@H](CC(=O)O)NC(=O)[C@H](CO)NC(=O)[C@@H](NC(=O)[C@H](Cc1ccccc1)NC(=O)[C@@H](NC(=O)CNC(=O)[C@H](CCC(=O)O)NC(=O)[C@H](C)NC(=O)[C@H](Cc1c[nH]cn1)NC(=O)[C@H](CCCNC(=N)N)NC(=O)[C@H](CCC(=O)O)NC(=O)[C@H](Cc1ccccc1)NC(=O)[C@@H](N)CCC(=O)O)[C@@H](C)O)[C@@H](C)O)C(C)C)C(=O)N[C@@H](C)C(=O)N[C@@H](Cc1c[nH]c2ccccc12)C(=O)N[C@@H](CC(C)C)C(=O)N[C@H](C(=O)N[C@@H](CCCCN)C(=O)NCC(=O)N[C@@H](CCCNC(=N)N)C(=O)NCC(=O)O)C(C)C` [GLP-1(3-37)], for which, in series [2], the “ED50 nM Duplicate Assays (first value)” value was 70 nM and the “ED50 nM Duplicate Assays (second value)” value was determined as 81 nM. As for `CC[C@H](C)[C@H](NC(=O)[C@H](Cc1ccccc1)NC(=O)[C@H](CCC(=O)O)NC(=O)[C@H](CCCCN)NC(=O)[C@H](C)NC(=O)[C@H](C)NC(=O)[C@H](CCC(N)=O)NC(=O)CNC(=O)[C@H](CCC(=O)O)NC(=O)[C@H](CC(C)C)NC(=O)[C@H](Cc1ccc(O)cc1)NC(=O)[C@H](CO)NC(=O)[C@H](CO)NC(=O)[C@@H](NC(=O)[C@H](CC(=O)O)NC(=O)[C@H](CO)NC(=O)[C@@H](NC(=O)[C@H](Cc1ccccc1)NC(=O)[C@@H](NC(=O)CNC(=O)[C@H](CCC(=O)O)NC(=O)[C@H](C)NC(=O)[C@H](Cc1c[nH]cn1)NC(=O)[C@H](CCCNC(=N)N)NC(=O)[C@H](CCC(=O)O)NC(=O)[C@@H](N)Cc1ccccc1)[C@@H](C)O)[C@@H](C)O)C(C)C)C(=O)N[C@@H](C)C(=O)N[C@@H](Cc1c[nH]c2ccccc12)C(=O)N[C@@H](CC(C)C)C(=O)N[C@H](C(=O)N[C@@H](CCCCN)C(=O)NCC(=O)N[C@@H](CCCNC(=N)N)C(=O)NCC(=O)O)C(C)C` [GLP-1(4-37)], in series [2], the “ED50 nM Duplicate Assays (first value)” value is recorded as 130 nM and the “ED50 nM Duplicate Assays (second value)” value turned out to be 200 nM. `CC[C@H](C)[C@H](NC(=O)[C@H](Cc1ccccc1)NC(=O)[C@H](CCC(=O)O)NC(=O)[C@H](CCCCN)NC(=O)[C@H](C)NC(=O)[C@H](C)NC(=O)[C@H](CCC(N)=O)NC(=O)CNC(=O)[C@H](CCC(=O)O)NC(=O)[C@H](CC(C)C)NC(=O)[C@H](Cc1ccc(O)cc1)NC(=O)[C@H](CO)NC(=O)[C@H](CO)NC(=O)[C@@H](NC(=O)[C@H](CC(=O)O)NC(=O)[C@H](CO)NC(=O)[C@@H](NC(=O)[C@H](Cc1ccccc1)NC(=O)[C@@H](NC(=O)CNC(=O)[C@H](CCC(=O)O)NC(=O)[C@H](C)NC(=O)[C@H](Cc1c[nH]cn1)NC(=O)[C@H](CCCNC(=N)N)NC(=O)[C@@H](N)CCC(=O)O)[C@@H](C)O)[C@@H](C)O)C(C)C)C(=O)N[C@@H](C)C(=O)N[C@@H](Cc1c[nH]c2ccccc12)C(=O)N[C@@H](CC(C)C)C(=O)N[C@H](C(=O)N[C@@H](CCCCN)C(=O)NCC(=O)N[C@@H](CCCNC(=N)N)C(=O)NCC(=O)O)C(C)C` [GLP-1(5-37)]: the “ED50 nM Duplicate Assays (first value)” value in series [2] is given as 150 nM. Turning to gastric inhibitory peptide [GIP], the “ED50 nM Duplicate Assays (first value)” value in series [2] (cAMP stimulation in RIN 1046-38 cells, first of duplicate assays) came out at 10.0 nM. Further, the “ED50 nM Duplicate Assays (second value)” value in series [2] (cAMP stimulation in RIN 1046-38 cells, second of duplicate assays) is 37.5 nM.
